pKd: −log10 of the molar value.

The pKd is the Kd on a negative log10 scale, so that one unit is a factor of ten.

The target in the first test is WDR5 (Homo sapiens (Human), UniProt P61964). In words: Surface Plasmon Resonance (SPR) assay, KD and residence time. In kind it is binding. Conditions: surface plasmon resonance (SPR) assay; read-out: WDR5 binding affinity (KD). On the technique in general: SPR reads the build-up and loss of mass on a sensor chip optically.
Turning to `C[C@@H]1CN(c2cc(F)c(-c3cnc(N4CCOCC4)nc3)cc2NC(=O)c2cccc(Cl)c2F)C[C@H](C)N1C` [Example 140, 3-chloro-2-fluoro-N-[4-fluoro-5-(2-morpholin-4-ylpyrimidin-5-yl)-2-[(3R,5S)-3,4,5-trimethylpiperazin-1-yl]phenyl]benzamide], the pKd was 7.73.
Consider `C[C@@H]1CN(c2cc(F)c(-c3cnc4c(c3)CCN4)cc2NC(=O)c2c[nH]c(=O)cc2C(F)(F)F)C[C@H](C)N1C` [Example 172, N-[5-(2,3-dihydro-1H-pyrrolo[2,3-b]pyridin-5-yl)-4-fluoro-2-[(3R,5S)-3,4,5-trimethylpiperazin-1-yl]phenyl]-6-oxo-4-(trifluoromethyl)-1H-pyridine-3-carboxamide], for which the pKd was 7.99.
Still for that read-out and setting: for `CC(=O)Nc1ccc(-c2cc(NC(=O)c3cn(C)c(=O)cc3C(F)F)c(N3CCN(C)C(C)C3)cc2F)cn1` (stereo in doubt) [Example 217, N-[5-(6-acetamidopyridin-3-yl)-4-fluoro-2-[(3R)-3,4-dimethylpiperazin-1-yl]phenyl]-4-(difluoromethyl)-1-methyl-6-oxopyridine-3-carboxamide] the value was 8.36.
The same measure, in the same setting: the same measure for `CN(C)[C@@H]1CCN(c2cc(F)c(-c3ccc(N4CCOCC4)cc3)cc2NC(=O)c2cc(Cl)cc(Cl)c2)C1` [Example 169, 3,5-dichloro-N-[4-fluoro-5-(4-morpholin-4-ylphenyl)-2-[(3R)-3-(dimethylamino)pyrrolidin-1-yl]phenyl]benzamide]: 6.91; for `C[C@@H]1CN(c2cc(F)c(-c3cnc(N4CCOCC4)nc3)cc2NC(=O)c2cc(F)c(F)c(F)c2)C[C@H](C)N1C` [Example 296, 3,4,5-trifluoro-N-[4-fluoro-5-(2-morpholin-4-ylpyrimidin-5-yl)-2-[(3R,5S)-3,4,5-trimethylpiperazin-1-yl]phenyl]benzamide]: 7.67; for `C[C@@H]1CN(c2cc(F)c(-c3cnc(N4C5CCC4CC5)nc3)cc2NC(=O)c2c[nH]c(=O)cc2C(F)(F)F)C[C@H](C)N1C` [Example 352, N-[5-[2-(7-azabicyclo[2.2.1]heptan-7-yl)pyrimidin-5-yl]-4-fluoro-2-[(3R,5S)-3,4,5-trimethylpiperazin-1-yl]phenyl]-6-oxo-4-(trifluoromethyl)-1H-pyridine-3-carboxamide]: 8.56.
The same measure, in the same setting: the same measure for `C[C@@H]1CN(c2cc(F)c(-c3cnc(OCc4ccccc4)c(C#N)c3)cc2NC(=O)c2c[nH]c(=O)cc2C(F)(F)F)C[C@H](C)N1C` [Example 99, N-[5-(5-cyano-6-phenylmethoxypyridin-3-yl)-4-fluoro-2-[(3R,5S)-3,4,5-trimethylpiperazin-1-yl]phenyl]-6-oxo-4-(trifluoromethyl)-1H-pyridine-3-carboxamide]: 7.95.
As to `C[C@@H]1CN(c2ncc(-c3cc(NC(=O)c4ccc(F)cc4C(F)(F)F)c(N4C[C@@H](C)N(C)[C@@H](C)C4)cc3F)cn2)C[C@H](C)N1C` [Example 381, 4-fluoro-N-[4-fluoro-2-[(3R,5S)-3,4,5-trimethylpiperazin-1-yl]-5-[2-[(3R,5S)-3,4,5-trimethylpiperazin-1-yl]pyrimidin-5-yl]phenyl]-2-(trifluoromethyl)benzamide], the pKd is 9.51.
On to `C[C@@H]1CN(c2cc(F)c(C3=CCN(C4CCCC4)CC3)cc2NC(=O)c2c[nH]c(=O)cc2C(F)(F)F)C[C@H](C)N1C` [Example 231, N-[5-(1-cyclopentyl-3,6-dihydro-2H-pyridin-4-yl)-4-fluoro-2-[(3R,5S)-3,4,5-trimethylpiperazin-1-yl]phenyl]-6-oxo-4-(trifluoromethyl)-1H-pyridine-3-carboxamide], for which the pKd was 8.60.
On the same count and under the same terms, for `C[C@@H]1CN(c2cc(F)c(-c3cncc(C(F)(F)F)c3)cc2NC(=O)c2cn(C)c(=O)cc2C(F)(F)F)C[C@H](C)N1C` [Example 180, N-[4-fluoro-2-[(3R,5S)-3,4,5-trimethylpiperazin-1-yl]-5-[5-(trifluoromethyl)pyridin-3-yl]phenyl]-1-methyl-6-oxo-4-(trifluoromethyl)pyridine-3-carboxamide] the value was 7.45; for `CCOC(=O)N1CC=C(c2cc(NC(=O)c3c[nH]c(=O)cc3C(F)(F)F)c(N3C[C@@H](C)N(C)[C@@H](C)C3)cc2F)CC1` [Example 253, ethyl 4-[2-fluoro-5-[[6-oxo-4-(trifluoromethyl)-1H-pyridine-3-carbonyl]amino]-4-[(3R,5S)-3,4,5-trimethylpiperazin-1-yl]phenyl]-3,6-dihydro-2H-pyridine-1-carboxylate], 8.48; for `C[C@@H]1CN(c2cc(F)c(-c3ccccc3CNC3CCCCC3)cc2NC(=O)c2c[nH]c(=O)cc2C(F)(F)F)C[C@H](C)N1C` [Example 67, N-[5-[2-[(cyclohexylamino)methyl]phenyl]-4-fluoro-2-[(3R,5S)-3,4,5-trimethylpiperazin-1-yl]phenyl]-6-oxo-4-(trifluoromethyl)-1H-pyridine-3-carboxamide], 8.32.
Same read-out and setting: the same measure for `C[C@@H]1CN(c2cc(F)c(-c3ccc(OCC4CC4)nc3)cc2NC(=O)c2cc(Cl)cc(Cl)c2)C[C@H](C)N1C` [Example 250, 3,5-dichloro-N-[5-[6-(cyclopropylmethoxy)pyridin-3-yl]-4-fluoro-2-[(3R,5S)-3,4,5-trimethylpiperazin-1-yl]phenyl]benzamide]: 7.11; for `C[C@@H]1CN(c2cc(F)c(C3=CCCN(c4ncc(F)cn4)C3)cc2NC(=O)c2c[nH]c(=O)cc2C(F)(F)F)C[C@H](C)N1C` [Example 377, N-[4-fluoro-5-[1-(5-fluoropyrimidin-2-yl)-3,6-dihydro-2H-pyridin-5-yl]-2-[(3R,5S)-3,4,5-trimethylpiperazin-1-yl]phenyl]-6-oxo-4-(trifluoromethyl)-1H-pyridine-3-carboxamide]: 8.89.
Still for that read-out and setting: for `C[C@@H]1CN(c2cc(F)c(-c3ccc(C#N)cc3)cc2NC(=O)c2c[nH]c(=O)cc2C(F)(F)F)C[C@H](C)N1C` [Example 100, N-[5-(4-cyanophenyl)-4-fluoro-2-[(3R,5S)-3,4,5-trimethylpiperazin-1-yl]phenyl]-6-oxo-4-(trifluoromethyl)-1H-pyridine-3-carboxamide] the value was 9.29; for `CC1CN(c2cc(F)c(-c3cnc4c(c3)OCCO4)cc2NC(=O)c2c[nH]c(=O)cc2C(F)(F)F)CCN1C` (stereo in doubt) [Example 241, N-[5-(2,3-dihydro-[1,4]dioxino[2,3-b]pyridin-7-yl)-4-fluoro-2-[(3R)-3,4-dimethylpiperazin-1-yl]phenyl]-6-oxo-4-(trifluoromethyl)-1H-pyridine-3-carboxamide], 8.55; for `CC1CN(c2cc(F)c(-c3cnc(N4CCOCC4)nc3)cc2NC(=O)c2ccccc2)CCN1C` (stereo in doubt) [Example 78, N-[4-fluoro-5-(2-morpholin-4-ylpyrimidin-5-yl)-2-[(3R)-3,4-dimethylpiperazin-1-yl]phenyl]benzamide], 7.75.

Still in this test, the particulars now being: surface plasmon resonance (SPR); read-out: WDR5 binding affinity (KD).
In the case of `CC1CN(c2cc(F)c(-c3cnn(CCN4CCOCC4)c3)cc2NC(=O)c2cn(C)c(=O)cc2C(F)F)CCN1C` (stereo in doubt) [Example 715, 4-(difluoromethyl)-N-[4-fluoro-5-[1-(2-morpholin-4-ylethyl)pyrazol-4-yl]-2-[(3R)-3,4-dimethylpiperazin-1-yl]phenyl]-1-methyl-6-oxopyridine-3-carboxamide], the pKd is 7.96.
Still for that read-out and setting: the same measure for `C[C@@H]1CN(c2cc(F)c(-c3ccc(C(=O)NC(C)(C)CC(C)(C)C)c(F)c3F)cc2NC(=O)c2ccc(F)cc2C(F)(F)F)C[C@H](C)N1C` [Example 665, 2,3-difluoro-4-[2-fluoro-5-[[4-fluoro-2-(trifluoromethyl)benzoyl]amino]-4-[(3R,5S)-3,4,5-trimethylpiperazin-1-yl]phenyl]-N-(2,4,4-trimethylpentan-2-yl)benzamide]: 6.82.
Still for that read-out and setting: for `C[C@@H]1CN(c2cc(F)c(-c3ccc(F)c(C(N)=O)c3)cc2NC(=O)c2ccc(F)cc2C(F)(F)F)C[C@H](C)N1C` [Example 556, 2-fluoro-5-[2-fluoro-5-[[4-fluoro-2-(trifluoromethyl)benzoyl]amino]-4-[(3R,5S)-3,4,5-trimethylpiperazin-1-yl]phenyl]benzamide] the value was 7.98; for `CC(C)OC(=O)N1CCC=C(c2cc(NC(=O)c3c[nH]c(=O)cc3C(F)F)c(N3CCN(C)C(C)C3)cc2F)C1` (stereo in doubt) [Example 726, propan-2-yl 5-[5-[[4-(difluoromethyl)-6-oxo-1H-pyridine-3-carbonyl]amino]-2-fluoro-4-[(3R)-3,4-dimethylpiperazin-1-yl]phenyl]-3,6-dihydro-2H-pyridine-1-carboxylate], 8.68.
As for `CNC(=O)c1ccc(-c2cc(NC(=O)c3c[nH]c(=O)cc3C(F)(F)F)c(N3C[C@@H](C)N(C)[C@@H](C)C3)cc2F)cc1F` [Example 603, N-[4-fluoro-5-[3-fluoro-4-(methylcarbamoyl)phenyl]-2-[(3R,5S)-3,4,5-trimethylpiperazin-1-yl]phenyl]-6-oxo-4-(trifluoromethyl)-1H-pyridine-3-carboxamide], the pKd was 8.96.
Consider `C[C@@H]1CN(c2cc(F)c(-c3ccc4scnc4c3)cc2NC(=O)c2c[nH]c(=O)cc2C(F)(F)F)C[C@H](C)N1C` [Example 678, N-[5-(1,3-benzothiazol-5-yl)-4-fluoro-2-[(3R,5S)-3,4,5-trimethylpiperazin-1-yl]phenyl]-6-oxo-4-(trifluoromethyl)-1H-pyridine-3-carboxamide], for which the pKd was 8.49.
On the same count and under the same terms, the same measure for `C[C@@H]1CN(c2cc(F)c(-c3cnc(N4CCC(C)(O)CC4)nc3)cc2NC(=O)c2cn(C)c(=O)cc2C(F)(F)F)C[C@H](C)N1C` [Example 641, N-[4-fluoro-5-[2-(4-hydroxy-4-methylpiperidin-1-yl)pyrimidin-5-yl]-2-[(3R,5S)-3,4,5-trimethylpiperazin-1-yl]phenyl]-1-methyl-6-oxo-4-(trifluoromethyl)pyridine-3-carboxamide]: 8.72; for `CNC(=O)c1cc(-c2cc(NC(=O)c3c[nH]c(=O)cc3C(F)(F)F)c(N3C[C@@H](C)N(C)[C@@H](C)C3)cc2F)ccc1F` [Example 604, N-[4-fluoro-5-[4-fluoro-3-(methylcarbamoyl)phenyl]-2-[(3R,5S)-3,4,5-trimethylpiperazin-1-yl]phenyl]-6-oxo-4-(trifluoromethyl)-1H-pyridine-3-carboxamide]: 8.77.

These data come from patent publication US11319299B2, “Substituted carboxamides as inhibitors of WDR5 protein-protein binding” (PROPELLON THERAPEUTICS INC., priority 2016, dated 2022).
